Source: ChEMBL document CHEMBL5344462, “Novel-Type GABAB PAMs: Structure-Activity Relationship in Light of the Protein Structure” (ACS Med Chem Lett, 2024)

Test: Positive allosteric modulator activity at rat cortical membrane GABA-B receptor incubated for 60 min by [35S]GTPgammaS binding assay
Type: cell membranes, Cortex

For `Cc1ncc(-c2ccc(C(F)(F)F)cc2)c(N[C@@H]2C[C@H]3CC[C@@H]2C3)n1`, the pEC50 was 6.13.
Compound `CSc1c(C)nc2cc(-c3ccc(Cl)cc3)nn2c1-c1cccc(NC(C)=O)c1` has a pEC50 of 7.75.
With `CSc1c(C)nc2cc(-c3ccc(Cl)cc3)nn2c1N1CCC[C@@H](C(=O)O)C1` the pEC50 was 7.15.
`COc1nn(-c2ccc(F)c(NC(C)=O)c2)c(=O)n(Cc2ccc(Cl)c(F)c2)c1=O` showed a pEC50 of 6.89.
With `CC(=O)Nc1cccc(-c2c(S(C)(=O)=O)c(C)nc3cc(-c4ccc(Cl)cc4)nn23)c1` the pEC50 was 6.42.
With `Cc1nc2ccc(I)cc2c(N2CCCCC2)c1S(C)(=O)=O` the pEC50 was 5.83.
Work on `CC(=O)Nc1cccc(-c2c([S+](C)[O-])c(C)nc3cc(-c4ccc(Cl)cc4)nn23)c1` (stereo not given) yielded a pEC50 of 6.19.
For `CSc1c(C)nc2cc(-c3ccc(Cl)cc3)nn2c1N1CCC[C@H](C(=O)O)C1`, the pEC50 was 6.75.
`CC(=O)Nc1cccc(-c2cc(C)nc3cc(-c4ccc(Cl)cc4)nn23)c1` gave a pEC50 of 6.6.
In the case of `CC(=O)Nc1ccccc1-c1cc(C)nc2cc(-c3ccc(Cl)cc3)nn12`, the pEC50 is reported as 6.17.
For `CCOC(=O)C1CCCN(c2cc(C)nc3cc(-c4ccc(Cl)cc4)nn23)C1` (racemic), the pEC50 was 5.85.
Work on `CC(C)(C)c1cc(C(C)(C)C)c2c(c1)C(O)(C(F)(F)F)C(=O)O2` (racemic) yielded a pEC50 of 6.78.
With `Cc1nc(N2CCCCC2CCO)c2sc(-c3ccc(Cl)cc3)cc2n1` (racemic) the pEC50 was 6.59.
`Cc1cc(NC2CCCNC2=O)n2nc(-c3ccc(Cl)cc3)cc2n1` (racemic) showed a pEC50 of 5.4.
`Cc1nc2cc(-c3ccc(Cl)cc3)nn2c(N2CCOCC2CCO)c1C#N` (racemic) showed a pEC50 of 5.78.
`Cc1nc(N2CCCCC2CCO)c2nc(-c3ccc(Cl)cc3)cn2n1` (racemic) gave a pEC50 of 6.24.
Work on `CCOC(=O)C1=C(N2CCOCC2CCO)N2N=C(c3ccc(Cl)cc3)CC2N=C1C` (racemic) yielded a pEC50 of 6.09.
In the case of `COc1c(C)nc2cc(-c3ccc(Cl)cc3)nn2c1N1CCCCC1CCO` (racemic), the pEC50 is reported as 7.05.
Compound `Cc1cc(N2CCCCC2CCO)c2sc(-c3ccc(Cl)cc3)cc2n1` (racemic) has a pEC50 of 6.22.
For `Cc1cc(N2CCCCC2CCO)n2nc(-c3ccc(C#N)cc3)cc2n1` (racemic), the pEC50 was 5.29.
With `Cc1cc(N2CCCCC2CCO)n2nc(-c3ccccc3)cc2n1` (racemic) the pEC50 was 5.91.
With `COc1c(C)nc2cc(-c3ccc(Cl)cc3)nn2c1N1CCCC(C(=O)O)C1` (racemic) the pEC50 was 5.69.
Compound `Cc1nc(N2CCCCC2CCO)n2nc(-c3ccc(Cl)cc3)cc2n1` (racemic) has a pEC50 of 6.63.
In the case of `Cc1cc(N2CCOCC2CCO)n2nc(-c3ccc(Cl)cc3)cc2n1` (racemic), the pEC50 is reported as 5.61.
`Cc1cc(N2CCCCC2CCO)n2nc(-c3cccc(Cl)c3)cc2n1` (racemic) showed a pEC50 of 5.3.
`Cc1cc(N2CCCCC2C(N)=O)n2nc(-c3ccc(Cl)cc3)cc2n1` (racemic) gave a pEC50 of 6.55.
`Cc1cc(N2CCCCC2C(=O)O)n2nc(-c3ccc(Cl)cc3)cc2n1` (racemic) gave a pEC50 of 5.97.
Work on `COc1ccc(-c2cc3nc(C)cc(N4CCCCC4CCO)n3n2)cc1` (racemic) yielded a pEC50 of 5.25.
Compound `Cc1cc(N2CCCCC2CCO)n2nc(-c3ccc(F)cc3)cc2n1` (racemic) has a pEC50 of 5.93.
Work on `Cc1cc(N2CCCCC2CCO)c2cc(-c3ccc(Cl)cc3)oc2n1` (racemic) yielded a pEC50 of 5.92.
`Cc1cc(N2CCCCC2CCO)n2nc(-c3ccc(Cl)cc3)cc2n1` (racemic) gave a pEC50 of 6.21.
For `CSc1c(C)nc2cc(-c3ccc(Cl)cc3)nn2c1N1CCCC(C(=O)O)C1` (racemic), the pEC50 was 6.93.
`Cc1cc(N2CCCC(C(=O)O)C2)n2nc(-c3ccc(Cl)cc3)cc2n1` (racemic) showed a pEC50 of 5.32.
Compound `Cc1cc(NC2CCCCNC2=O)n2nc(-c3ccc(Cl)cc3)cc2n1` (racemic) has a pEC50 of 5.89.
For `Cc1cc(N2CCCCC2CCO)n2nc(Cc3ccccc3)cc2n1` (racemic), the pEC50 was 5.24.
